# Experimental data as given in US4596675A, “Novel thiopeptolide substrates for vertebrate collagenase” (Monsanto Company, priority 1985, dated 1986).
# Non-standard residues stand in square brackets, D forms with d. Residues, ends and D or L forms follow the SMILES beside them. *: point of attachment. Dnp = O=[N+]([O-])c1ccc(*)c([N+](=O)[O-])c1
# Biological target: T1, collagenase (Homo sapiens, UniProt P03956)
# T1 construct: endogenous in cells; host or cells: normal human skin fibroblasts (culture medium)
# T1 sequence (P03956 100-469): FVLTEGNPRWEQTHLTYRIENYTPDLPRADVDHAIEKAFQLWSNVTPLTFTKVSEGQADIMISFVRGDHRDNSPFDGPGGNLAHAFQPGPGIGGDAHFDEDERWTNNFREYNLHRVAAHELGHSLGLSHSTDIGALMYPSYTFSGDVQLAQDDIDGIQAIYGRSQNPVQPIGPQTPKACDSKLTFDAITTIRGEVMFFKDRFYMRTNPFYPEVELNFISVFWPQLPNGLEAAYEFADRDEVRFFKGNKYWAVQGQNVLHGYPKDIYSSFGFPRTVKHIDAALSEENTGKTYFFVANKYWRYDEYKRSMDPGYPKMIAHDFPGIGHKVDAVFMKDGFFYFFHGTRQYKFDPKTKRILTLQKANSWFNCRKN
# Test: Rate of hydrolysis of substrates by collagenase, assayed by HPLC
# Format: biochemical
# Details: Comparison of Substrate; assayed by HPLC (no chromophore)
# Procedure: The following Table I sets forth the relative rates of hydrolysis in the above spectrophotometric assay using the above thiopeptolides as substrates in comparison to the rates of hydrolysis assayed by High Performance Liquid Chromatography (HPLC) of two commercially available substrates for collagenase and two other substrates described in copending Application Ser. No. 450,318, cited hereinbefore.
row,Relative Rate (of hydrolysis),Compound
1,110,CCOC(=O)CNC(=O)[C@H](C)NC(=O)[C@H](CC(C)C)NC(=O)CNC(=O)[C@H](CC(C)C)NC(=O)[C@@H]1CCCN1C(C)=O [Ac--Pro--Leu--Gly--Leu--Ala--Gly--OC2 H5] (Ac-PLGLAG-OEt)
2,5,CC[C@H](C)[C@H](NC(=O)CNC(=O)[C@H](CCC(N)=O)NC(=O)[C@@H]1CCCN1c1ccc([N+](=O)[O-])cc1[N+](=O)[O-])C(=O)N[C@@H](C)C(=O)NCC(=O)N[C@@H](CCC(N)=O)C(=O)N[C@H](CCCNC(=N)N)C(=O)O [DNP-Pro-Gln-Gly-Ile-Ala-Gly-Gln-D-Arg-OH] (Dnp-PQGIAGQ[dR]-OH)
3,250,CCOC(=O)CNC(=O)[C@H](CC(C)C)NC(=O)[C@H](CC(C)C)NC(=O)CNC(=O)[C@H](CC(C)C)NC(=O)[C@@H]1CCCN1C(C)=O [Ac--Pro--Leu--Gly--Leu--Leu--Gly--OC2 H5] (Ac-PLGLLG-OEt)
4,25,CC[C@H](C)[C@H](NC(=O)CNC(=O)[C@H](CC(C)C)NC(=O)[C@@H]1CCCN1c1ccc([N+](=O)[O-])cc1[N+](=O)[O-])C(=O)N[C@@H](C)C(=O)NCC(=O)N[C@@H](CCCNC(=N)N)C(N)=O [DNP-Pro-Leu-Gly-Ile-Ala-Gly-Arg-NH2] (Dnp-PLGIAGR-NH2)
